Test results reported in US20150250167A1, “COMPOSITION FOR NOXIOUS ORGANISMS-CONTROLLING AGENT AND METHOD FOR USING THE SAME” (priority 2001, published 2015).

Columns and labels:
[1] = system: Citrus Yellow Thrips (Frankliniella occidentalis); assay: Control of citrus yellow thrips on egg plant by combined use with natural enemy pesticide, number of thrips; format: in vivo; conditions: 100 ppm, spray
[2] = system: Rice Water Weevil (Lissorhoptrus oryzophilus); assay: Control of rice water weevil on paddyfield rice by nursery box application, extent of injury; format: in vivo; conditions: 0.5 g ai/Box, single agent
[3] = system: Southern Root-Knot Nematode (Meloidogyne incognita); assay: Test for the effect on southern root-knot nematode, soil blending with granular preparation; format: in vivo; conditions: 300 g ai/10a, single agent, 60 days after treatment
Source text: Test for the Effect on Southern Root-Knot Nematode (Meloidogyne incognita)
Two killograms of a soil polluted with southern root-knot nematode was blended with a predetermined dose of a granular preparation. The mixture was filled into a 1/5,000 are Wagner pot. After sowing melon seeds and carrying out the treatment of the present invention, the pot was left to stand in a greenhouse. Sixty days after the treatment, 25 g of the soil was sampled out, the nematode was separated therefrom according to the method of Berman, and the numbers of nematodes were counted after 48 hours.
In the tables, “ai” means active ingredient.

[4] = system: Rice Leafroller (Cnaphalocrosis medinalis); assay: Control of rice leafroller on paddyfield rice by nursery box application, number of injured leaves; format: in vivo; conditions: 0.5 g ai/Box, single agent
Experimental: (§1) Test for the Control of Small Brown Planthopper (Laodelphax striatellus) and Rice Leafroller (Cnaphalocrosis medinalis) on Paddyfield Rice Plant by Nursery Box Application
(§2) Fifty grams of a granular preparation was applied to rice plant (variety: Nihombare) cultured in a nursery box, after which the rice plant was transplanted to the main paddy field (in the middle of May). The controlling effect against small brown planthopper was evaluated by investigating the number of parasitic insects on 30 hills per each plot, 40 days and 60 days after the transplantation. The controlling effect against rice leafroller was evaluated by investigating the number of injured leaves on 100 hills per each plot, 50 days after the transplantation.

[5] = system: Diamondback Moth (Plutella xyloxtella); assay: Control of diamondback moth on cabbage by soil treatment, number of parasitic insects; format: in vivo; conditions: 5 mg ai/hill, 21 days after transplanting
Experimental: (§3) Test for the Control of Diamondback Moth (Plutella xyloxtella) and Aphid on Cabbage by Soil Treatment
(§4) A granular preparation was mixed into bed soil, and the mixture was filled into a cell seedling box and sown with seeds of cabbage (variety: YR Seitoku). Otherwise, cell seedling planted cabbage was treated with the granular agent either by a treatment in the foliage leaf extraction period, or by a pre-transplanting treatment, or by a pricking-in hole treatment, or by a plant foot treatment after the planting. Twenty one days after the transplanting (in the middle of June), the number of parasitic insects was counted on 30 hills in the case of diamondback moth and on 10 hills in the case of aphid.

[6] = system: Brown Rice Planthopper (Nilaparvata lugens); assay: Insecticidal test on brown rice planthopper, rice seedling dipping; format: in vivo; conditions: 100 ppm, single agent; for Death rate (%) After 1 days: after 1 day
Source text: Insecticidal Test on Brown Rice Planthopper (Nilaparvata lugens)
Rice seedlings (variety: Nihombare) were dipped in a solution of an agent diluted to a predetermined concentration for 30 seconds. After air-dryness, each seedling was introduced into a glass-made test tube having a diameter of 1.8 cm and a height of 20 cm, and inoculated with ten 3rd inster nimphs of brown rice planthopper. Then, the test tube was stoppered with cotton. One day after and four days after the treatment, the number of alive insects was counted, based on which the insect death rate was calculated.

[7] = system: Small Brown Planthopper (Laodelphax striatellus); assay: Control of small brown planthopper on paddyfield rice by nursery box application, number of parasitic insects; format: in vivo; conditions: 0.5 g ai/Box, single agent
Experimental: as §1, §2

[8] = system: Resistant Strain of Two-Spotted Spider Mite; conditions: 100 ppm, single agent, 2 days after spraying
Aphid = assay: Control of aphid on cabbage by soil treatment, number of parasitic insects; format: in vivo; conditions: 5 mg ai/hill, 21 days after transplanting
Experimental: as §3
as §4, with “Twenty one days after the transplanting (in the middle of June), the number of parasitic insects was counted on 30 hills in the case of diamondback moth and on 10 hills in the case of aphid.” left out

[9] = system: Green Peach Aphid (Myzus persicae); assay: Insecticidal test on green peach aphid, spraying of Chinese cabbage, control value; format: in vivo; conditions: 100 ppm, single agent, 6 days after spraying
[10] = system: Smaller Tea Tortrix (Adoxophyes orana fosciota); assay: Insecticidal test on smaller tea tortrix, tea leaf dipping; format: in vivo; conditions: single agent 0.3 ppm, 4th instar larvae, 25° C.
Experimental: Insecticidal Test on Smaller Tea Tortrix (Adoxophyes orana fosciota)
Tea leaves were dipped in a solution of a chemical diluted to a prescribed concentration for 30 seconds. […] Four days and seven days after the treatment, the number of alive insects were counted, from which percentage of death was calculated.

Rice Blast = conditions: in vivo
Cutworm = assay: Test for the effect against cutworm on beet, drench, number of injured hills per 100 hills; format: in vivo; conditions: 15 g ai/10a
Experimental: Test for the Effect Against Cutworm on Beet
Beet seedlings (variety: Monoace S) planted in a paper pot was treated with 3 L/m^2 of a solution of an agent diluted to a predetermined concentration, by the method of drench. Just after the drench, the plant was set. Predetermined days after the setting, the number of injured hills per 100 hills was counted.

[11] = true leaf extraction season treatment

Compound | Number of parasitic insects per 20 leaves, After 60 days [1] | Number of parasitic insects per 20 leaves, After 90 days [1] | Number of parasitic insects per 20 leaves, After 120 days [1] | Extent of injury After 21 days [2] | Number of nematodes per 25 g of soil sample [3] | Percentage of injured leaves (%) After 50 days [4] [%] | Number of parasitic insects per 30 hills, Diamondback moth ([5]; plant foot treatment) | Number of parasitic insects per 30 hills, Diamondback moth ([5]; pre-transplanting treatment) | Number of parasitic insects per 30 hills, Diamondback moth ([5]; pricking-in hole treatment) | Number of parasitic insects per 30 hills, Diamondback moth ([5]; soil incorporation) | Number of parasitic insects per 30 hills, Diamondback moth [5, 11] | Death rate (%) After 1 days [6] [%] | Death rate (%) After 5 days [6] [%] | Number of parasitic planthoppers per 30 hills After 40 days [7] | Number of parasitic planthoppers per 30 hills After 60 days [7] | Death rate (%) [8] [%] | Number of parasitic insects per 30 hills, Aphid (Aphid; plant foot treatment) | Number of parasitic insects per 30 hills, Aphid (Aphid; pre-transplanting treatment) | Number of parasitic insects per 30 hills, Aphid (Aphid; pricking-in hole treatment) | Number of parasitic insects per 30 hills, Aphid (Aphid; soil incorporation) | further results
Cc1cc(C(F)(C(F)(F)F)C(F)(F)F)ccc1NC(=O)c1cccc(I)c1C(=O)NC(C)C [Compound 43] | 23 | 31 | 57 | 44.3 | 36 | 0.17 | 2 | 3 | 1 | 2 | 2 | 0 | 0 | 309 | 334 | 0 | 467 | 482 | 447 | 501 | Number of parasitic insects per 30 hills, Aphid (Aphid; [11]): 448; Control degree (%) [9]: 0%; Death rate (%) After 4 days [10]: 0%; Death rate (%) After 7 days [10]: 35%; Areal rate of disease spot (%) After 60 days (Rice Blast): 8.9%; Number of injured hills per 100 hills, After 60 days (Cutworm): 0; Number of injured hills per 100 hills, After 90 days (Cutworm): 6; Number of injured hills per 100 hills, After 120 days (Cutworm): 19
Cc1cc(OC(F)(F)F)ccc1NC(=O)c1cccc(I)c1C(=O)NC(C)C [Compound 44] | 25 | 33 | 53 | 45.9 | 29 | 0.24 | 2 | 3 | 3 | 3 | 2 | 0 | 0 | 323 | 358 | 0 | 492 | 498 | 478 | 449 | Number of parasitic insects per 30 hills, Aphid (Aphid; [11]): 502; Control degree (%) [9]: 0%; Death rate (%) After 4 days [10]: 0%; Death rate (%) After 7 days [10]: 20%; Areal rate of disease spot (%) After 60 days (Rice Blast): 9.1%; Number of injured hills per 100 hills, After 60 days (Cutworm): 0; Number of injured hills per 100 hills, After 90 days (Cutworm): 7; Number of injured hills per 100 hills, After 120 days (Cutworm): 20
